Measured values reported in patent publication US20100329994A1, “Use of Deuterium Dioxide for Treating Hyperproliferative Skin Diseases” (priority 2006, published 2010).

Assays:
[1] = tested on: normal human epithelial cell lines from the skin (TE 353.sk); test: Proliferation rate (average cell-doubling rate) of normal human skin epithelial cell line in culture; details: 30% D2O based on the complete medium, counted from 48 h then every 24 h for a week, 6 wells
Source text: (§1) The influence of D2O and H2O on the proliferation rate of carcinoma cells and normal cells was investigated on cell cultures. For this purpose, human TE 354.T epithelial cell lines derived from the human basal-cell carcinoma (American Type Culture Collection (ATCC), Rockville, USA) were used. Normal human epithelial cell lines from the skin of the same individual (TE 353.sk from ATCC) were used as control. The cells were transferred into 96-well cell culture plates (10^4 cells per well) and allowed to grow to subconfluence. The medium used for this purpose was Dulbecco's modified Eagles medium (DMEM) to which 10% heat-deactivated fetal calf serum (LGC Promochem, Wesel, Germany) was added. The medium was changed, for the first time 2 days after introduction of the cells and then every 48 hours. At the subconfluent stage of the cell culture of the two cell lines, 30% D2O, based on the complete medium, was added to the medium. […] From these values, the average cell-doubling rate n was determined from the gradient of a graphical plot of log {cell count} vs. time in accordance with the equation n=3.32 (log Nt−log N0). Here, Nt is the cell count measured after time t, and N0 is the cell count determined at the time when D2O or H2O was added (zero point measurement). The average cell-doubling rate was determined by averaging the results over in each case 6 wells per time point.

[2] = tested on: human TE 354.T epithelial cell lines derived from the human basal-cell carcinoma; test: Proliferation rate (average cell-doubling rate) of human basal-cell carcinoma cell line in culture; assay type: cell-based
Source text: as §1

Structure (SMILES): [2H]O[2H] [D2O, deuterium dioxide]
- average cell-doubling rate <n> D2O, normal cells [1]: 0.41 ± 0.04
- reduction in <n> for the carcinoma cells compared with normal cells ([2]; 30% D2O added to medium, versus H2O): disproportionately large reduction
- average cell-doubling rate <n> D2O, carcinoma cells ([2]; 30% D2O based on the complete medium, TE 354.T, counted from 48 h then every 24 h for a week, 6 wells): 0.23 ± 0.02
